Data as given in the NIST ThermoML archive (doi:10.1021/je200415u).

Assay: mn = molality of the nth substance listed, in mol/kg
Details: 101 kPa, Liquid, METLER TOLEDO SevenEasy conductivity meter

O=[N+]([O-])[O-].O=[N+]([O-])[O-].O=[N+]([O-])[O-].[Ce+3] [cerium nitrate] + O
electrical conductivity [S/m]
Details	m1 = 0.5112	m1 = 1.031	m1 = 1.555	m1 = 1.997	m1 = 3.131	m1 = 3.968	m1 = 4.462
293.15 K	6.618	8.513	8.217	7.244	4.309	2.67	1.912
298.15 K	7.4	9.446	9.15	8.103	4.9	3.1	2.244
308.15 K	8.78	11.24	10.9	9.78	6.136	4.018	2.96

O=[N+]([O-])[O-].O=[N+]([O-])[O-].O=[N+]([O-])[O-].[Nd+3] [neodymium(III) nitrate] + O
electrical conductivity [S/m]
Details	m1 = 0.522	m1 = 1.021	m1 = 1.555	m1 = 2.093	m1 = 3.086	m1 = 4.124	m1 = 4.297
293.15 K	6.78	8.78	8.65	7.44	4.708	2.521	2.219
298.15 K	7.48	9.66	9.545	8.27	5.329	2.931	2.623
308.15 K	8.97	11.5	11.44	10.01	6.65	3.821	3.422

O=[N+]([O-])[O-].O=[N+]([O-])[O-].O=[N+]([O-])[O-].[Y+3] [yttrium nitrate] + O
electrical conductivity [S/m]
Details	m1 = 0.4989	m1 = 0.9965	m1 = 1.497	m1 = 1.982	m1 = 2.947	m1 = 3.945	m1 = 4.957
293.15 K	7.202	10.03	10.36	9.433	6.35	3.68	1.89
298.15 K	8.339	11.6	12	10.9	7.421	4.4	2.28
308.15 K	9.922	13.7	14.17	13.03	9.08	5.611	3.08
